Assay results published in US20090246185A1, “CARDIAC DYSFUNCTION-AMELIORATING AGENT OR CARDIAC FUNCTION-MAINTAINING AGENT” (KANEKA CORPORATION, priority 2006, published 2009).
Marks after values point to notes of the source that are not given here.

What was measured:
[1] = tested on: ischemia-reperfusion model; assay: Cardiac function evaluation (left ventricular end-diastolic pressure) in rat ischemia-reperfusion model; type: in vivo; settings: for left ventricle end-diastolic pressure: male SD rats, LAD occlusion 30 min then reperfusion, 30 mg/kg per day oral in corn oil, 1 week before and 4 weeks after operation, mean ± standard error; for effect on elevation of the end-diastolic pressure (cardiac function), in words: rat ischemia-reperfusion model, 30 mg/kg per day oral, vs. control group
Description: (§1) Male SD rats (9-week-old, Japan SLC Inc.) were divided into four groups. Each rat was anesthetized with pentobarbital sodium (35-45 mg/kg, i.p.), and fixed at the dorsal position. A tracheal tube was orally inserted into the airway, artificial respiration was performed by an artificial respirator for small animals, and the medial wall of the thorax was opened to expose the heart. In three groups, the left anterior descending artery (LAD) was obstructed for 30 min with a surgical needle with a thread. At this time, an electrocardiogram was measured via an amplifier for electrocardiogram, and the presence or absence of occlusion was confirmed based on the changes in the ST electrical potential and cardiac muscle color. An ischemia-reperfusion model was prepared by reperfusing the blood flow after 30 min from the occlusion. Thereafter, in all groups, the thorax was closed, sutured, and disinfected with a veterinary Isodine solution.
(§2) The following samples were administered to each group for 1 week before the above-mentioned operation and 4 weeks after the operation (total 5 weeks).
(§3) Group for which occlusion treatment was performed, and oxidized coenzyme Q10 dissolved in corn oil was orally administered at a dosage of 30 mg/kg per day based on the amount of oxidized coenzyme Q10
(§4) Group for which occlusion treatment was performed, and […] dissolved in corn oil was orally administered at a dosage of 30 mg/kg per day based on the amount of reduced coenzyme Q10
After measuring the body weight on the next day of the final administration, the rats were fixed at the dorsal position under pentobarbital sodium (25-35 mg/kg, i.p.) anesthesia, and a mirror catheter was inserted into the right carotid artery. After confirmation of the stable condition, the left ventricle internal pressure wave pattern was led to a biological electric amplifier to enlarge same, and the left ventricular end-diastolic pressure (LVEDP) was measured.

[2] = tested on: ischemia-reperfusion model; assay: Heart weight (body weight ratio) in rat ischemia-reperfusion model; type: in vivo; settings: for body weight ratio of heart weight: left atrium / body weight ratio of heart weight: left ventricle / body weight ratio of heart weight: right atrium / body weight ratio of heart weight: right ventricle: male SD rats, ischemia-reperfusion, 30 mg/kg per day oral in corn oil, 5 weeks, average; for effect on increase in heart weight (edema), in words: rat ischemia-reperfusion model, 30 mg/kg per day oral, vs. control group
Description: as §1, §2, §3, §4
After cardiac function evaluation, the animals were euthanized by dislocation of cervical spine under anesthesia, and the heart was removed. The right atrium weight, left atrium weight, right ventricle weight, left ventricle weight and overall weight of the heart (weight of both atria+weight of both ventricles) were measured. For evaluation, the body weight ratio of the right atrium weight, the body weight ratio of the left atrium weight, the body weight ratio of the right ventricle weight and the body weight ratio of the left ventricle weight were calculated.

[3] = tested on: rats; settings: 1200 mg/kg/day consecutive administration for 52 weeks; cited from earlier work
[4] = Absorbability evaluation: total coenzyme Q10 in plasma and heart by HPLC; settings: male SD rats, 100 mg/kg oral in soybean oil once a day for 4 weeks; average, N=3
Description: Male SD rats (5-week-old, Japan SLC Inc.) were each orally administered with soybean oil (control group), oxidized coenzyme Q10 (100 mg/kg) dissolved in soybean oil (oxidized coenzyme Q10 group) and reduced coenzyme Q10 (containing 1 wt % of oxidized coenzyme Q10; 100 mg/kg) dissolved in soybean oil (reduced coenzyme Q10 group) once a day for 4 consecutive weeks (each group N=3). After completion of the administration, blood samples were taken and the heart was removed, and the total amount of coenzyme Q10 (total amount of oxidized coenzyme Q10 and reduced coenzyme Q10) in plasma and heart was quantified by HPLC according to a conventional method.

## COC1=C(OC)C(=O)C(C/C=C(\C)CC/C=C(\C)CC/C=C(\C)CC/C=C(\C)CC/C=C(\C)CC/C=C(\C)CC/C=C(\C)CC/C=C(\C)CC/C=C(\C)CCC=C(C)C)=C(C)C1=O [oxidized coenzyme Q10, reference compound]
[1]
  left ventricle end-diastolic pressure: 8.3 ± 0.7 mmHg
  effect on elevation of the end-diastolic pressure (cardiac function), in words: did not provide an ameliorating effect
[2]
  body weight ratio of heart weight: left atrium: 0.081
  body weight ratio of heart weight: left ventricle: 1.823
  body weight ratio of heart weight: right atrium: 0.135
  body weight ratio of heart weight: right ventricle: 0.498
  effect on increase in heart weight (edema), in words: suppressed increase in the heart weight in all parts
[3]
  toxic influence in chronic toxicity test: did not show a toxic influence

## COc1c(O)c(C)c(C/C=C(\C)CC/C=C(\C)CC/C=C(\C)CC/C=C(\C)CC/C=C(\C)CC/C=C(\C)CC/C=C(\C)CC/C=C(\C)CC/C=C(\C)CCC=C(C)C)c(O)c1OC [reduced coenzyme Q10]
[1]
  left ventricle end-diastolic pressure: 5.7 ± 0.4 mmHg
  effect on elevation of the end-diastolic pressure (cardiac function), in words: significant suppression of elevation of the end-diastolic pressure
[2]
  body weight ratio of heart weight: left atrium: 0.089
  body weight ratio of heart weight: left ventricle: 1.879
  body weight ratio of heart weight: right atrium: 0.146
  body weight ratio of heart weight: right ventricle: 0.508
  effect on increase in heart weight (edema), in words: suppressed increase in the heart weight in all parts
[4]
  total coenzyme Q10 concentration in heart: 9.33 µg/mL
  total coenzyme Q10 concentration in plasma: 0.39* μg/ml
